Experimental data published in patent US20050080103A1, “Procedure for asthmatic, and other non-invasive surgery for brain tumor cures” (priority 2003, published 2005).
Entries after “also recorded” stand apart in the source; their conditions may differ.

Tested on: asthma (attributed by the author to a brain tumor)
Assay: Self-treatment of the inventor's asthma by repeated deep inhalation of evaporated free base cocain
Conditions: inventor's self-report

In the case of `COC(=O)[C@H]1[C@@H](OC(=O)c2ccccc2)C[C@@H]2CC[C@H]1N2C` [cocain], the “Outcome on asthma / asthma attacks” value (one person, evaporated free base piece about 1/10 gram inhaled once per half hour, 32 sessions over 16 hours, outcome realized 4 months later) is reported as “effected the cure of my asthma; also recorded: not getting any more asthma attacks” and the “Time until the metabolic use of one inhaled dose came to an end (session duration)” value (one full deep breath of evaporated free base cocain per session) is reported as “approximately one half”.
